Measurements: paper PMC10150359 (Journal of Medicinal Chemistry, 2023)

Tests used:
[1] = system: VSV-G-pseudotype virus (pVSV-G); test: microbe, parasite or virus in culture; assay type: cell-based; details: Vesicular stomatitis virus, read-out: %inh@10 µM (pVSV-G)
[2] = system: EBOV-GP-Pseudotype Virus (pEBOV)
[3] = system: wild-type Zaire EBOV Mayinga 1976 strain (EBOV May)
in vitro [4] = details: human
in vitro [5] = details: chlorocebus sabaeus
[6] = system: EBOV-GP-Pseudotype Virus (pEBOV); test: microbe, parasite or virus in culture; details: Zaire ebolavirus, 48 h; for EC50: HeLa, read-out: EC50 (μM) (pEBOV); for inhibition at 10 µM: M-HeLa, read-out: %inh@10 μM (pEBOV)
[7] = system: wild-type Zaire EBOV Mayinga 1976 strain (EBOV May); test: microbe, parasite or virus in culture; details: Zaire ebolavirus, Vero C1008, 72 h, read-out: EC50 (μM), replicative EBOV

Row | SMILES | inhibition at 10 µM [6] | CC50 (in vitro [4]) | further results
1 | O=C(CCNCCC1CCN(Cc2ccccc2)CC1)Nn1c2ccccc2c2ccccc21 [Compound 2] |  |  | inhibition at 10 µM [1]: 10%; SI (pEBOV) (CC50/EC50) [2]: 2.87; SI (CC50/EC50), replicative EBOV [3]: 9.1; CC50 at 24 h (in vitro [4]): 0.46 µM; CC50 at 24 h (in vitro [5]): 4.75 µM; EC50 [6]: 0.16 µM; EC50 [7]: 0.52 µM
2 | CN1CCN(CCC(=O)Nn2c3ccccc3c3ccccc32)CC1 [Compound 3] |  |  | inhibition at 10 µM [1]: 10%; SI (pEBOV) (CC50/EC50) [2]: 62.5; CC50 at 24 h (in vitro [4]): 150 µM; EC50 [6]: 2.4 µM
3 | CN(C)CC(=O)Nn1c2ccccc2c2ccccc21 [Compound 4] | < 75% |  | antiviral activity against pEBOV, in words [2]: inactive
4 | CN(C)CCC(=O)Nn1c2ccccc2c2ccccc21 [Compound 5] | < 75% |  | antiviral activity against pEBOV, in words [2]: inactive
5 | O=C(CCN1CCCC1)Nn1c2ccccc2c2ccccc21 [Compound 6] |  |  | inhibition at 10 µM [1]: 9%; SI (pEBOV) (CC50/EC50) [2]: 21.7; CC50 at 24 h (in vitro [4]): 28 µM; EC50 [6]: 1.29 µM
6 | O=C(CCN1CCCCC1)Nn1c2ccccc2c2ccccc21 [Compound 7] |  |  | inhibition at 10 µM [1]: 30%; SI (pEBOV) (CC50/EC50) [2]: 1.78; CC50 at 24 h (in vitro [4]): 5 µM; EC50 [6]: 2.8 µM
7 | O=C(CCl)Nn1c2ccccc2c2ccccc21 [Compound 8] | < 75% |  | antiviral activity against pEBOV, in words [2]: inactive
8 | O=C(CNCCC1CCN(Cc2ccccc2)CC1)NC1c2ccccc2-c2ccccc21 [Compound 9, 2-((2-(1-Benzylpiperidin-4-yl)ethyl)amino)-N-(9H-fluoren-9-yl)acetamide] |  |  | inhibition at 10 µM [1]: -10%; SI (pEBOV) (CC50/EC50) [2]: 93; SI (CC50/EC50), replicative EBOV [3]: 134.6; CC50 at 24 h (in vitro [4]): 159 µM; CC50 at 24 h (in vitro [5]): 33.6 µM; EC50 [6]: 1.7 µM; EC50 [7]: 0.25 µM
9 | CN1CCN(CCC(=O)NN(c2ccccc2)c2ccccc2)CC1 [Compound 14, 3-(4-Methylpiperazin-1-yl)-N′,N′-diphenylpropanehydrazide] |  | > 100 µM | inhibition at 10 µM [1]: 2%; SI (pEBOV) (CC50/EC50) [2]: 358; CC50 (in vitro [5]): > 100 µM; EC50 [6]: 0.27 µM; EC50 [7]: > 100 µM
10 | O=C(CN1CCN(c2ccccc2)CC1)NN(c1ccccc1)c1ccccc1 [Compound 15, N′,N′-Diphenyl-2-(4-phenylpiperazin-1-yl)acetohydrazide] | 8% | > 10 µM | EC50 [6]: > 100 µM
11 | O=C(CCN1CCN(c2ccccc2)CC1)NN(c1ccccc1)c1ccccc1 [Compound 16, N′,N′-Diphenyl-3-(4-phenylpiperazin-1-yl)propanehydrazide] | 70% | > 10 µM | 
12 | CCOC(=O)C1CCN(CC(=O)NN(c2ccccc2)c2ccccc2)CC1 [Compound 17, Ethyl 1-(2-(2,2-Diphenylhydrazinyl)-2-oxoethyl)piperidine-4-carboxylate] | 47% | > 10 µM | 
13 | CCOC(=O)C1CCN(CCC(=O)NN(c2ccccc2)c2ccccc2)CC1 [Compound 18, Ethyl 1-(3-(2,2-Diphenylhydrazinyl)-3-oxopropyl)piperidine-4-carboxylate] | 24% | > 10 µM | 
14 | O=C(CCN1CCCCC1)NN(c1ccccc1)c1ccccc1 [Compound 19, N′,N′-Diphenyl-3-(piperidin-1-yl)propanehydrazide] | 60% | > 10 µM | antiviral activity against pEBOV, in words [2]: inactive
15 | O=C(CN1CCOCC1)NN(c1ccccc1)c1ccccc1 [Compound 20, 2-Morpholino-N′,N′-diphenylacetohydrazide] | -1% | > 10 µM | 
16 | O=C(CCN1CCOCC1)NN(c1ccccc1)c1ccccc1 [Compound 21, 3-Morpholino-N′,N′-diphenylpropanehydrazide] | 29% | > 10 µM | 
17 | O=C(CNCCN1CCOCC1)NN(c1ccccc1)c1ccccc1 [Compound 22, 2-((2-Morpholinoethyl)amino)-N′,N′-diphenylacetohydrazide] | 27% | > 10 µM | 
18 | O=C(CCNCCN1CCOCC1)NN(c1ccccc1)c1ccccc1 [Compound 23, 3-((2-Morpholinoethyl)amino)-N′,N′-diphenylpropanehydrazide] | 42% | > 10 µM | 
19 | O=C(CNCCc1ccccc1)NN(c1ccccc1)c1ccccc1 [Compound 24, 2-(Phenethylamino)-N′,N′-diphenylacetohydrazide] | 10% | > 10 µM | 
20 | O=C(CCNCCc1ccccc1)NN(c1ccccc1)c1ccccc1 [Compound 25, 3-(Phenethylamino)-N′,N′-diphenylpropanehydrazide] | 61% | > 10 µM | 

Row | SMILES | inhibition at 10 µM [6] | CC50 (in vitro [4]) | further results
21 | CCOC(=O)CCCCCCNCC(=O)NN(c1ccccc1)c1ccccc1 [Compound 26, Ethyl 7-((2-(2,2-Diphenylhydrazinyl)-2-oxoethyl)amino)heptanoate] | 51% | > 10 µM | 
22 | CCOC(=O)CCCCCCNCCC(=O)NN(c1ccccc1)c1ccccc1 [Compound 27, Ethyl 7-((3-(2,2-Diphenylhydrazinyl)-3-oxopropyl)amino)heptanoate] | 53% | > 10 µM | 
23 | CCCCCC(=O)NN(c1ccccc1)c1ccccc1 [Compound 28, N′,N′-Diphenylhexanehydrazide] | 67% | > 10 µM | 
24 | O=C(Cc1ccc(Br)cc1)NN(c1ccccc1)c1ccccc1 [Compound 29, 2-(4-Bromophenyl)-N′,N′-diphenylacetohydrazide] | 73% | > 10 µM | 
25 | O=C(CNCCC1CCN(Cc2ccccc2)CC1)NN(Cc1ccccc1)c1ccccc1 [Compound 30, N′-Benzyl-2-((2-(1-benzylpiperidin-4-yl)ethyl)amino)-N′-phenylacetohydrazide] |  |  | inhibition at 10 µM [1]: -25%; SI (pEBOV) (CC50/EC50) [2]: 62; CC50 at 24 h (in vitro [4]): 106 µM; EC50 [6]: 1.05 µM
26 | O=C(CCNCCC1CCN(Cc2ccccc2)CC1)NN(Cc1ccccc1)c1ccccc1 [Compound 31, N′-Benzyl-3-((2-(1-benzylpiperidin-4-yl)ethyl)amino)-N′-phenylpropanehydrazide] | < 75% | > 10 µM | antiviral activity against pEBOV, in words [2]: inactive
27 | O=C(CCNCCN1CCN(Cc2ccccc2)CC1)NN(Cc1ccccc1)c1ccccc1 [Compound 32, N′-Benzyl-3-((2-(4-benzylpiperazin-1-yl)ethyl)amino)-N′-phenylpropanehydrazide] |  |  | inhibition at 10 µM [1]: -36%; SI (pEBOV) (CC50/EC50) [2]: 19.2; CC50 at 24 h (in vitro [4]): 70 µM; EC50 [6]: 3.63 µM
28 | CN1CCN(CC(=O)NN(Cc2ccccc2)c2ccccc2)CC1 [Compound 33] | 13% | > 100 µM | antiviral activity against pEBOV, in words [2]: inactive; CC50 (in vitro [5]): > 100 µM; EC50 [7]: > 100 µM
29 | CN1CCN(CCC(=O)NN(Cc2ccccc2)c2ccccc2)CC1 [Compound 34, N′-Benzyl-3-(4-methylpiperazin-1-yl)-N′-phenylpropanehydrazide] | < 75% | > 10 µM | antiviral activity against pEBOV, in words [2]: inactive
30 | CCOC(=O)C1CCN(CC(=O)NN(Cc2ccccc2)c2ccccc2)CC1 [Compound 35, Ethyl 1-(2-(2-Benzyl-2-phenylhydrazineyl)-2-oxoethyl)piperidine-4-carboxylate] | 15% | > 100 µM | 
31 | COC(=O)C1CCN(CC(=O)NN(Cc2ccccc2)c2ccccc2)CC1 [Compound 36, Methyl 1-(2-(2-Benzyl-2-phenylhydrazineyl)-2-oxoethyl)piperidine-4-carboxylate] | 24% | > 100 µM | 
32 | CCOC(=O)CCCCCCNCC(=O)NN(Cc1ccccc1)c1ccccc1 [Compound 37, Ethyl 7-((2-(2-Benzyl-2-phenylhydrazineyl)-2-oxoethyl)amino)heptanoate] | 30% | > 100 µM | 
33 | CCCCCC(=O)NN(Cc1ccccc1)c1ccccc1 [Compound 38, N′-Benzyl-N′-phenylhexanehydrazide] | 18% | > 100 µM | 
34 | O=C(Cc1ccc(Br)cc1)NN(Cc1ccccc1)c1ccccc1 [Compound 39, N′-Benzyl-2-(4-bromophenyl)-N′-phenylacetohydrazide] | 32% | > 100 µM | 
35 | O=C(CNCCC1CCN(Cc2ccccc2)CC1)N(c1ccccc1)c1ccccc1 [Compound 40, 2-((2-(1-Benzylpiperidin-4-yl)ethyl)amino)-N,N-diphenylacetamide] | 8% |  | CC50 at 24 h (in vitro [4]): 100 µM
36 | CCOC(=O)C1CCN(CC(=O)N(c2ccccc2)c2ccccc2)CC1 [Compound 41, Ethyl 1-(2-(Diphenylamino)-2-oxoethyl)piperidine-4-carboxylate] | 40% | > 100 µM | 
37 | O=C(CNCCc1ccccc1)N(c1ccccc1)c1ccccc1 [Compound 42, 2-(Phenethylamino)-N,N-diphenylacetamide] | 38% | > 100 µM | 
38 | CCOC(=O)CCCCCCNCC(=O)N(c1ccccc1)c1ccccc1 [Compound 43, Ethyl 7-((2-(Diphenylamino)-2-oxoethyl)amino)heptanoate] | 35% | > 100 µM | 
39 | CCCCCC(=O)N(c1ccccc1)c1ccccc1 [Compound 44, N,N-Diphenylhexanamide] | 32% | > 100 µM | 
40 | O=C(Cc1ccc(Br)cc1)N(c1ccccc1)c1ccccc1 [Compound 45, 2-(4-Bromophenyl)-N,N-diphenylacetamide] | 36% | > 100 µM | 
